In the NIST ThermoML archive (doi:10.1021/je300382a):
Numbers after ± are expanded uncertainties.

Experiment: refractive index (Na D-line) (dimensionless); xn = mol fraction of the nth substance listed
Settings: 101 kPa, Liquid, Standard Abbe refractometry

Q: Which refractive index (283.15 K, x1 = 0.0001) does the source give for NCc1ccccc1 [benzylamine] + O here?
A: 1.3338 ± 0.0003

Q: And the refractive index (283.15 K, x1 = 0.0005)?
A: 1.3344 ± 0.0007

Q: What about the refractive index (283.15 K, x1 = 0.001) of the same molecule?
A: 1.3351 ± 0.0013

Q: What about the refractive index (283.15 K, x1 = 0.003) of the same molecule?
A: 1.3376 ± 0.0018

Q: And the refractive index (283.15 K, x1 = 0.006)?
A: 1.3411 ± 0.002

Q: And the refractive index (283.15 K, x1 = 0.01)?
A: 1.3461 ± 0.002

Q: What about the refractive index (283.15 K, x1 = 0.03) of the same molecule?
A: 1.3683 ± 0.0017

Q: What about the refractive index (283.15 K, x1 = 0.05) of the same molecule?
A: 1.387 ± 0.0015

Q: And the refractive index (283.15 K, x1 = 0.07)?
A: 1.4047 ± 0.0013

Q: And the refractive index (283.15 K, x1 = 0.1)?
A: 1.4252 ± 0.0008

Q: What about the refractive index (283.15 K, x1 = 0.2) of the same molecule?
A: 1.468 ± 0.0006

Q: And the refractive index (283.15 K, x1 = 0.3)?
A: 1.4957 ± 0.0005

Q: What about the refractive index (283.15 K, x1 = 0.4) of the same molecule?
A: 1.5143 ± 0.0004

Q: And the refractive index (283.15 K, x1 = 0.5)?
A: 1.5263 ± 0.0004

Q: And the refractive index (283.15 K, x1 = 0.6)?
A: 1.5343 ± 0.0004

Q: What about the refractive index (283.15 K, x1 = 0.7) of the same molecule?
A: 1.5399 ± 0.0004

Q: What about the refractive index (283.15 K, x1 = 0.8) of the same molecule?
A: 1.5447 ± 0.0004

Q: What about the refractive index (283.15 K, x1 = 0.9) of the same molecule?
A: 1.5491 ± 0.0004

Q: And the refractive index (283.15 K, x1 = 1)?
A: 1.5516 ± 0.0004

Q: And the refractive index (293.15 K, x1 = 0.0001)?
A: 1.3331 ± 0.0004

Q: And the refractive index (293.15 K, x1 = 0.0005)?
A: 1.3337 ± 0.0007

Q: And the refractive index (293.15 K, x1 = 0.001)?
A: 1.3343 ± 0.0013

Q: What about the refractive index (293.15 K, x1 = 0.003) of the same molecule?
A: 1.3368 ± 0.002

Q: What about the refractive index (293.15 K, x1 = 0.006) of the same molecule?
A: 1.3403 ± 0.0019

Q: What about the refractive index (293.15 K, x1 = 0.01) of the same molecule?
A: 1.3449 ± 0.0019

Q: What about the refractive index (293.15 K, x1 = 0.03) of the same molecule?
A: 1.367 ± 0.0016

Q: And the refractive index (293.15 K, x1 = 0.05)?
A: 1.3853 ± 0.0014

Q: And the refractive index (293.15 K, x1 = 0.07)?
A: 1.4007 ± 0.0012

Q: And the refractive index (293.15 K, x1 = 0.1)?
A: 1.4214 ± 0.0008

Q: And the refractive index (293.15 K, x1 = 0.2)?
A: 1.4648 ± 0.0006

Q: What about the refractive index (293.15 K, x1 = 0.3) of the same molecule?
A: 1.4918 ± 0.0005

Q: What about the refractive index (293.15 K, x1 = 0.4) of the same molecule?
A: 1.5097 ± 0.0004

Q: What about the refractive index (293.15 K, x1 = 0.5) of the same molecule?
A: 1.5218 ± 0.0004

Q: And the refractive index (293.15 K, x1 = 0.6)?
A: 1.5296 ± 0.0004

Q: What about the refractive index (293.15 K, x1 = 0.7) of the same molecule?
A: 1.5355 ± 0.0004

Q: What about the refractive index (293.15 K, x1 = 0.8) of the same molecule?
A: 1.5397 ± 0.0004

Q: What about the refractive index (293.15 K, x1 = 0.9) of the same molecule?
A: 1.5429 ± 0.0004

Q: And the refractive index (293.15 K, x1 = 1)?
A: 1.5445 ± 0.0004

Q: And the refractive index (303.15 K, x1 = 0.0001)?
A: 1.3321 ± 0.0006

Q: And the refractive index (303.15 K, x1 = 0.0005)?
A: 1.3326 ± 0.0007

Q: What about the refractive index (303.15 K, x1 = 0.001) of the same molecule?
A: 1.3333 ± 0.0013

Q: And the refractive index (303.15 K, x1 = 0.003)?
A: 1.3357 ± 0.002

Q: And the refractive index (303.15 K, x1 = 0.006)?
A: 1.3392 ± 0.002

Q: And the refractive index (303.15 K, x1 = 0.01)?
A: 1.3441 ± 0.0019

Q: What about the refractive index (303.15 K, x1 = 0.03) of the same molecule?
A: 1.3654 ± 0.0016

Q: And the refractive index (303.15 K, x1 = 0.05)?
A: 1.3834 ± 0.0014

Q: What about the refractive index (303.15 K, x1 = 0.07) of the same molecule?
A: 1.3985 ± 0.0012

Q: And the refractive index (303.15 K, x1 = 0.1)?
A: 1.4183 ± 0.0008

Q: What about the refractive index (303.15 K, x1 = 0.2) of the same molecule?
A: 1.4614 ± 0.0006

Q: And the refractive index (303.15 K, x1 = 0.3)?
A: 1.4879 ± 0.0005

Q: And the refractive index (303.15 K, x1 = 0.4)?
A: 1.5057 ± 0.0004

Q: And the refractive index (303.15 K, x1 = 0.5)?
A: 1.5172 ± 0.0004

Q: And the refractive index (303.15 K, x1 = 0.6)?
A: 1.5252 ± 0.0004

Q: What about the refractive index (303.15 K, x1 = 0.7) of the same molecule?
A: 1.5307 ± 0.0004

Q: What about the refractive index (303.15 K, x1 = 0.8) of the same molecule?
A: 1.5344 ± 0.0004

Q: What about the refractive index (303.15 K, x1 = 0.9) of the same molecule?
A: 1.5375 ± 0.0004

Q: What about the refractive index (303.15 K, x1 = 1) of the same molecule?
A: 1.5393 ± 0.0004

Q: And the refractive index (313.15 K, x1 = 0.0001)?
A: 1.331 ± 0.0004

Q: What about the refractive index (313.15 K, x1 = 0.0005) of the same molecule?
A: 1.3312 ± 0.0007

Q: What about the refractive index (313.15 K, x1 = 0.001) of the same molecule?
A: 1.3318 ± 0.0013

Q: And the refractive index (313.15 K, x1 = 0.003)?
A: 1.3342 ± 0.0019

Q: And the refractive index (313.15 K, x1 = 0.006)?
A: 1.3376 ± 0.0019

Q: And the refractive index (313.15 K, x1 = 0.01)?
A: 1.3423 ± 0.0019

Q: And the refractive index (313.15 K, x1 = 0.03)?
A: 1.3634 ± 0.0016

Q: What about the refractive index (313.15 K, x1 = 0.05) of the same molecule?
A: 1.381 ± 0.0013

Q: And the refractive index (313.15 K, x1 = 0.07)?
A: 1.3961 ± 0.0012

Q: And the refractive index (313.15 K, x1 = 0.1)?
A: 1.4163 ± 0.0008

Q: And the refractive index (313.15 K, x1 = 0.2)?
A: 1.4592 ± 0.0006

Q: And the refractive index (313.15 K, x1 = 0.3)?
A: 1.4848 ± 0.0005

Q: And the refractive index (313.15 K, x1 = 0.4)?
A: 1.5024 ± 0.0004

Q: What about the refractive index (313.15 K, x1 = 0.5) of the same molecule?
A: 1.5129 ± 0.0004

Q: What about the refractive index (313.15 K, x1 = 0.6) of the same molecule?
A: 1.5202 ± 0.0004

Q: And the refractive index (313.15 K, x1 = 0.7)?
A: 1.5259 ± 0.0004

Q: And the refractive index (313.15 K, x1 = 0.8)?
A: 1.5296 ± 0.0004

Q: And the refractive index (313.15 K, x1 = 0.9)?
A: 1.5319 ± 0.0004

Q: And the refractive index (313.15 K, x1 = 1)?
A: 1.5328 ± 0.0004

Q: And the refractive index (323.15 K, x1 = 0.0001)?
A: 1.3298 ± 0.0003

Q: What about the refractive index (323.15 K, x1 = 0.0005) of the same molecule?
A: 1.3297 ± 0.0007

Q: And the refractive index (323.15 K, x1 = 0.001)?
A: 1.3303 ± 0.0012

Q: And the refractive index (323.15 K, x1 = 0.003)?
A: 1.3327 ± 0.0019

Q: What about the refractive index (323.15 K, x1 = 0.006) of the same molecule?
A: 1.3361 ± 0.0018

Q: And the refractive index (323.15 K, x1 = 0.01)?
A: 1.3405 ± 0.0018

Q: And the refractive index (323.15 K, x1 = 0.03)?
A: 1.3614 ± 0.0016

Q: And the refractive index (323.15 K, x1 = 0.05)?
A: 1.3787 ± 0.0013

Q: What about the refractive index (323.15 K, x1 = 0.07) of the same molecule?
A: 1.3937 ± 0.0012

Q: And the refractive index (323.15 K, x1 = 0.1)?
A: 1.4136 ± 0.0008

Q: And the refractive index (323.15 K, x1 = 0.2)?
A: 1.4569 ± 0.0006

Q: What about the refractive index (323.15 K, x1 = 0.3) of the same molecule?
A: 1.4818 ± 0.0005

Q: And the refractive index (323.15 K, x1 = 0.4)?
A: 1.4985 ± 0.0004

Q: And the refractive index (323.15 K, x1 = 0.5)?
A: 1.5084 ± 0.0004

Q: What about the refractive index (323.15 K, x1 = 0.6) of the same molecule?
A: 1.5159 ± 0.0004

Q: And the refractive index (323.15 K, x1 = 0.7)?
A: 1.5211 ± 0.0004

Q: And the refractive index (323.15 K, x1 = 0.8)?
A: 1.5247 ± 0.0004

Q: What about the refractive index (323.15 K, x1 = 0.9) of the same molecule?
A: 1.527 ± 0.0004

Q: What about the refractive index (323.15 K, x1 = 1) of the same molecule?
A: 1.5279 ± 0.0004
